In patent publication US10710979B2, “EGFR kinase inhibitor and preparation method and use thereof” (ZHEJIANG BOSSAN PHARMACEUTICAL CO. LTD., priority 2015, dated 2020):

Experiments:
Format in all cases: cell-based
[1] = system: human hepatoma cell HepG2; assay: Effect of compounds on proliferation of tumor cells (MTT), HepG2; details: 72 hours
Experimental: (§1) Human lung cancer cells H1975, H522, human hepatoma cell HepG2, human melanoma cell A375, human epidermal cancer cell A431, and human colon cancer cells COLO205 were cultivated. The cells were collected when they have grown to logarithmic growth phase, and centrifuged at 1000 rpm for 5 min, from which the supernatant was discarded, and the rest was suspended with appropriate amount of medium, and the concentration of cells was adjusted to 2.5-5.5×10^4/ml (once it was 3.0-5.5×10^4/ml). The cell suspension was inoculated into a 96-well cell culture plate with 100 μl per well, and placed in a cell incubator (37° C., 5% CO2) for 24 hours, and then 100 μl of the drug diluted in the cell culture medium was added to each well of the drug group. Three duplicate wells were set for each drug, and the negative control group was medium containing 0.5% DMSO. After being incubated for 72 hours in the incubator, 20 μl of MTT (5 mg/ml) was added to each well, which was placed under 37° C. for 3 hours. 150 μl of DMSO was added to each well and shaken at 37° C. for 5 mins, and absorbance (OD) was determined at 492 nm. The Prism Graphpad statistical software was used to calculate IC50 values.

[2] = system: human lung cancer cells H522; assay: Effect of compounds on proliferation of tumor cells (MTT), H522; details: NCI-H522, 72 hours
Experimental: as §1

[3] = system: human colon cancer cells COLO205; assay: Effect of compounds on proliferation of tumor cells (MTT), COLO205; details: COLO 205, 72 hours
Experimental: as §1

[4] = system: human melanoma cell A375; assay: Effect of compounds on proliferation of tumor cells (MTT), A375; details: A-375, 72 hours
Experimental: as §1

[5] = system: human epidermal cancer cell A431; assay: Effect of compounds on proliferation of tumor cells (MTT), A431; details: A-431, 72 hours
Experimental: as §1

[6] = system: human lung cancer cells H1975; assay: Effect of compounds on proliferation of tumor cells (MTT), H1975; details: Homo sapiens, NCI-H1975; H1975 cells, 72 hours, MTT
Experimental: as §1

SMILES | IC50 [1] [µM] | IC50 [2] [nM] | IC50 [3] [µM] | IC50 [4] [µM] | IC50 [5] [nM] | IC50 [6] [nM]
C=CC(=O)Nc1cccc(Nc2nc(Nc3ccc(N4CCN(C(=O)C(C)C)CC4)nc3OC)ncc2C(F)(F)F)c1 [ES-141] | 4.05 | 2340 | 4.25 | 4.5 | 720 | 55.2
C=CC(=O)Nc1cccc(Nc2nc(Nc3ccc(N4CCN(C(=O)C5CC5)CC4)nc3OC)ncc2C(F)(F)F)c1 [ES-130] | 0.794 | 1770 | 3.35 | 4.59 | 2250 | 35.6
C=CC(=O)Nc1cccc(Nc2nc(Nc3cnc(N4CCN(C(C)=O)CC4)cc3OC)ncc2C(F)(F)F)c1 [ES-074] | 6.88 |  |  | 10.3 | 3500 | 179
C=CC(=O)Nc1cccc(Nc2nc(Nc3cnc(N4CCN(C(=O)OC(C)(C)C)CC4)nc3OC)ncc2C(F)(F)F)c1 [ES-159] | 2.23 | 3130 | 1.86 | 49.9 | 37000 | 649
C=CC(=O)Nc1cccc(Nc2nc(Nc3ccc(N4CCN(C(=O)C(F)(F)F)CC4)nc3OC)ncc2C(F)(F)F)c1 [ES-135] | 0.329 | 3250 | 8.87 | 1.5 | 4430 | 110
C=CC(=O)Nc1cccc(Nc2nc(Nc3ccc(NC4CCN(CCF)C4)nc3OC)ncc2C(F)(F)F)c1 (stereo not shown) [ES-124] | 3.73 | 1250 | 2.21 | 6.26 | 2090 | 55.7
C=CC(=O)Nc1cccc(Nc2nc(Nc3ccc(NC4CCN(C)C4)nc3OC)ncc2C(F)(F)F)c1 (stereo not shown) [ES-146] | 13 | 3000 | 8.71 | 12.2 | 3460 | 46
C=CC(=O)Nc1cccc(Nc2nc(Nc3ccc(N4CCN(C(C)=O)CC4)nc3)ncc2C(F)(F)F)c1 [ES-157] | 1.38 | 655 | 1.79 | 5.46 | 1810 | 87.2
C=CC(=O)Nc1cccc(Nc2nc(Nc3ccc(N4CCN(C(=O)C(C)(C)C)CC4)nc3OC)ncc2C(F)(F)F)c1 [ES-139] | 3.86 | 2710 | 3.6 | 9.47 | 4540 | 1640
C=CC(=O)Nc1cccc(Nc2nc(Nc3ccc(N4CCN(S(=O)(=O)NC)CC4)nc3OC)ncc2C(F)(F)F)c1 [ES-133] | 13.2 | 3390 | 5.66 | 12.5 | 5680 | 430
C=CC(=O)Nc1cccc(Nc2nc(Nc3ccc(N(C)C4CCN(C(=O)C5COC5)C4)nc3OC)ncc2C(F)(F)F)c1 (stereo not shown) [ES-149] | 5.23 | 3100 | 5.07 | 6.71 | 3920 | 49.1
C=CC(=O)Nc1cccc(Nc2nc(Nc3ccc(N4CCN(S(=O)(=O)CCC)CC4)nc3OC)ncc2C(F)(F)F)c1 [ES-144] | 0.101 | 399 | 1.46 | 1.51 | 2180 | 133
C=CC(=O)Nc1cccc(Nc2nc(Nc3cnc(N4CCN(C(=O)N(C)C)CC4)nc3OC)ncc2C(F)(F)F)c1 [ES-164] | 12.6 | 1390 | 6.05 | 18.2 | 5720 | 74.5
C=CC(=O)Nc1cccc(Nc2nc(Nc3ccc(N4CCN(C(=O)CC(C)(C)C)CC4)nc3OC)ncc2C(F)(F)F)c1 [ES-138] | 3.07 | 5890 | 4.08 | 3.79 | 2910 | 254
C=CC(=O)Nc1cccc(Nc2nc(Nc3ccc(N4CCN(C(=O)N(C)C)CC4)nc3)ncc2C(F)(F)F)c1 [ES-158] | 3.42 | 735 | 1.93 | 3.76 | 1070 | 107
C=CC(=O)Nc1cccc(Nc2nc(Nc3ccc(N4CCN(C(=O)OC(C)(C)C)CC4)nc3OC)ncc2C(F)(F)F)c1 [ES-070] | 7.22 |  |  | 4.95 | 1750 | 111
C=CC(=O)Nc1cccc(Nc2nc(Nc3cnc(N4CCN(C(=O)OC(C)(C)C)CC4)cc3OC)ncc2C(F)(F)F)c1 [ES-073] | 1.95 |  |  | 15 | 7080 | 214

SMILES | IC50 [1] [µM] | IC50 [2] [nM] | IC50 [3] [µM] | IC50 [4] [µM] | IC50 [5] [nM] | IC50 [6] [nM]
C=CC(=O)Nc1cccc(Nc2nc(Nc3ccc(N(C)C4CCN(CCF)C4)nc3OC)ncc2C(F)(F)F)c1 (stereo not shown) [ES-148] | 4.53 | 1560 | 5 | 5.87 | 2500 | 32
C=CC(=O)Nc1cccc(Nc2nc(Nc3ccc(N4CCN(C(=O)OCC)CC4)nc3OC)ncc2C(F)(F)F)c1 [ES-136] | 2.05 | 1590 | 3.59 | 1.04 | 768 | 175
C=CC(=O)Nc1cccc(Nc2nc(Nc3ccc(N4CCNCC4)nc3OC)ncc2C(F)(F)F)c1 [ES-069] | 15.8 |  |  | 2.42 | 5260 | 224
C=CC(=O)Nc1cccc(Nc2nc(Nc3ccc(N(C)C4CCN(C(=O)N(C)C)C4)nc3OC)ncc2C(F)(F)F)c1 (stereo not shown) [ES-151] | 4.78 | 3130 | 6.07 | 4.47 | 6740 | 132
C=CC(=O)Nc1cccc(Nc2nc(Nc3ccc(N(C)C4CCN(C(C)=O)C4)nc3OC)ncc2C(F)(F)F)c1 (stereo not shown) [ES-147] | 4.28 | 1740 | 4.29 | 4.2 | 2210 | 464
C=CC(=O)Nc1cccc(Nc2nc(Nc3ccc(N4CCN(S(=O)(=O)C(C)C)CC4)nc3OC)ncc2C(F)(F)F)c1 [ES-145] | 33.3 | 18000 | 37.6 | 77.9 | 13500 | 542
C=CC(=O)Nc1cccc(Nc2nc(Nc3cnc(N4CCN(C(C)=O)CC4)nc3OC)ncc2C(F)(F)F)c1 [ES-160] | 5.79 | 3560 | 5.08 | > 100 | 7210 | 690
C=CC(=O)Nc1cccc(Nc2nc(Nc3ccc(NC4CCN(C(C)=O)C4)nc3OC)ncc2C(F)(F)F)c1 (stereo not shown) [ES-123] | 9.2 | 2690 | 4.62 | 8.94 | 4620 | 150
C=CC(=O)Nc1cccc(Nc2nc(Nc3ccc(N4CCN(C(=O)N(C)C)CC4)nc3OC)ncc2C(F)(F)F)c1 [ES-131] | 3.07 | 2400 | 5.33 | 4.04 | 3820 | 57.9
C=CC(=O)Nc1cccc(Nc2nc(Nc3ccc(N4CCN(S(=O)(=O)CC)CC4)nc3OC)ncc2C(F)(F)F)c1 [ES-143] | 0.401 | 1070 | 2.15 | 2.02 | > 100000 | 480
C=CC(=O)Nc1cccc(Nc2nc(Nc3cnc(N4CCN(C)CC4)nc3OC)ncc2C(F)(F)F)c1 [ES-161] | 6.24 | 2750 | 4.14 | 7.86 | 2320 | 86.8
C=CC(=O)Nc1cccc(Nc2nc(Nc3ccc(N4CCN(C(=O)COC(C)=O)CC4)nc3OC)ncc2C(F)(F)F)c1 [ES-140] | 5.87 | 2280 | 3.16 | 6.46 | 2080 | 270
C=CC(=O)Nc1cccc(Nc2nc(Nc3ccc(N4CCN(S(=O)(=O)C5CC5)CC4)nc3OC)ncc2C(F)(F)F)c1 [ES-134] | 0.399 | 1640 | 2.95 | 3.36 | 1720 | 69.1
C=CC(=O)Nc1cccc(Nc2nc(Nc3ccc(N4CCN(S(=O)(=O)N(C)C)CC4)nc3OC)ncc2C(F)(F)F)c1 [ES-132] | 4.14 | 2900 | 3.78 | 4.42 | 2620 | 230
C=CC(=O)Nc1cccc(Nc2nc(Nc3ccc(NC4CCN(C(=O)C5COC5)C4)nc3OC)ncc2C(F)(F)F)c1 (stereo not shown) [ES-125] | 16.8 | 3960 | 5.56 | 12.2 | 5040 | 149
C=CC(=O)Nc1cccc(Nc2nc(Nc3ccc(N4CCN(S(C)(=O)=O)CC4)nc3OC)ncc2C(F)(F)F)c1 [ES-142] | 1.01 | 826 | 2.96 | 4.4 | 1220 | 80
C=CC(=O)Nc1cccc(Nc2nc(Nc3ccc(N(C)C4CCN(C)C4)nc3OC)ncc2C(F)(F)F)c1 (stereo not shown) [ES-150] | 3.27 | 1510 | 5.15 | 6.22 | 2050 | 23.2
